One data set can be described thus: solubility in solvents. The format is physicochemical.
Data set [1] is described as follows: stability of the azide in acidified aqueous MeOD (19F NMR, FTIR). The class given is physicochemical. How it is done: The azide compounds according to the present invention are stable even in strongly acidic aqueous environment. […] Its ^19F NMR spectrum is acquired within 5 min and again after 21 days. […] This was further confirmed through FTIR analysis of the solid recovered by evaporation after the ^19F NMR experiment. No change in the azide stretching intensity (νasN3, 2129 cm^−1) normalized against benzene (νring, 1546 cm^−1) was observed.

Take `C[N+](C)(CCCNC(=O)c1c(F)c(F)c(N=[N+]=[N-])c(F)c1F)CCCNC(=O)c1c(F)c(F)c(N=[N+]=[N-])c(F)c1F` [V]: the “solubility in H2O” value in “solubility in solvents” was “soluble in H2O”.

In the case of “N,N-dimethyl-N,N-dipropylene bis(4-azido-2,3,5,6-tetrafluorobenzamide) ammonium iodide”, the “change of 19F NMR spectrum” value in data set [1] (16 mg mL^-1 in acidified deuterated MeOD containing 2.4 M HCl and 6.5 M H2O, within 5 min vs after 21 days) is “No observable change”. In data set [1] (solid recovered by evaporation after the 19F NMR experiment (21 days in acidic aqueous MeOD)), the “change in azide stretching intensity (FTIR, 2129 cm^-1) normalized against benzene ring band” value is recorded as “No change”.

Values taken from patent US8105745B2, “Radiation crosslinker” (National University of Singapore, priority 2005, dated 2012).
